Measured values: patent publication US5641480A, “Hair care compositions comprising heteroatom containing alkyl aldonamide compounds” (Lever Brothers Company, Division of Conopco, Inc., priority 1994, dated 1997)

What was measured:
zein = tested on: zein
From the text: The zein solubilization assay was developed to determine the biological effects of surfactants on the skin. The protein is normally in soluble in water, but can be brought into solution by interaction with surfactants. The extent of zein dissolved is related to the irritation potential (M. J. Schwinger, Kolloid-Z. Z. Poly., 233, 848, 1969). The greater the zein solubilization, the greater the irritation potential of that surfactant on the skin.
Thus, a 1% solution of surfactant (30 mls) was added to 1.5 g of zein and stirred at room temperature for 1 hour. Residual zein was collected and dried to constant weight. Differences between starting and residual weights were used to calculate % zein solubilized.

[1] = Viscosity of prototype shampoo compositions with sodium lauryl sulfate, Brookfield Digital Viscometer (Example 88); assay type: physicochemical; details: vs no thickener
Description: (§1) The prototype shampoo composition is as follows:
(§2) The above formulations were prepared by admixing the above ingredients in listed order and heating the mixture to about 80° C. with rapid stirring. The mixture was then cooled to about 40° C., placed in a clear jar and stored at room temperature for 6 months.
It is well known that the viscosity of a liquid composition comprising of anionic surfactant can be modified by the addition of inorganic salts, such as sodium chloride. However, in the absence of an organic modifier, high levels of salt may be necessary to achieve the required viscosity which may lead to problems of storage at cold temperature or even salting out certain ingredients. In practice, however, the viscosity of a liquid composition is modified by the simultaneous addition of thickener and small amounts of inorganic salt (viscosity cobuilder). The combined effect is greater than either one alone. The viscosity of the above prototype shampoo composition comprising various amounts of heteroatom containing alkyl aldonamide compound is as follows: […]

[2] = Ross-Miles foam height assay of aldonamides (Examples 81-84); assay type: physicochemical; details: 0.1% aldonamide, 40° C. (if not soluble, about 5°-10° C. above Krafft point), 0 ppm hardness
Description: In the Ross-Miles method, 200 mL of a suffactant solution contained in a pipette of specified dimensions with a 2.9 -mm-i.d. orifice is allowed to fall 90 cm onto 50 mL of the same solution contained in a cylindrical vessel maintained at a given temperature by means of a water jacket. The height of the foam produced in the cylindrical vessel is read immediately after all the solution has run out of the pipette and then again after a given amount of time.
Using this method, the foam production (initial foam height in mm) and foam stability (final foam height after 10 minutes in mm) were measured at 0.1% aldonamtde concentration, 40° C. and 0 ppm (parts per million) hardness.

[3] = Effectiveness in reducing surface tension (Example 93); assay type: physicochemical; details: 60 °C
From the text: As mentioned before, surface tension reduction depends on the replacement of water molecules at the interface by surfactant molecules, therefore the effectiveness of a surfactant in reducing interfacial surface tension should reflect the saturated concentration of surfactant at the interface relative to that in bulk liquid phase. During this process the surface tension of water steadily decreases as bulk phase surfactant concentration increases. This will continue until the concentration reaches the critical micelle concentration (CMC), above which the surface tension remains nearly unchanged and the interface is saturated with surfactant. The surface tension at the CMC is therefore very close to the minimum interfacial tension or maximum surface pressure that the system can achieve. The surface pressure at this point, IIcmc, is a suitable measure of the effectiveness of a surfactant in reducing surface tension and is given as:
.PI.cmc 20+2.3nRT(Γmax) log [CMC/C20 ]
n=1 which represents the number of ions whose surface concentration changes with the change in liquid phase suffactant concentration.
CMC/C20 =is the ratio of the critical micelle concentration to the bulk phase surfactant concentration necessary to reduce the surface tension of water by 20 dyn/cm.

[4] = Viscosity of prototype shampoo compositions of Example 86, Brookfield Digital Viscometer; assay type: physicochemical; details: 4.0% thickener
From the text: The results are as follows:

[5] = Area per molecule at the water/air interface (Example 95); assay type: physicochemical; details: 60 °C
From the text: The area per molecule of a surfactant at the water/air interface provides information on the degree of packing and the orientation of the adsorbed surfactant molecule. While not wishing to be bound by theory, it is believed that surfactants that have small area per molecule values tend to pack more closely at the interface than those with large area per molecule values. From the surface excess concentration at surface saturation (Γmax), the area per molecule (am) of C8 /C10 oxypropyl D-gluconamide was determined and is given by:
am =1×10^16 /Nav Γmax

[6] = Micellar shape and structure, packing parameter (Example 96); details: T=333.15° K.
From the text: A theory of miceIlar structure, based upon the geometry of various micelle shapes and the space occupied by the surfactant has been disclosed by J. N. Israelachvili, D. J. Mitchell and B. W. Ninham in the J. Chem. Soc. Faraday Trans. 2, 1525, 72, (1976) which is given as the packing parameter (p).
VT =V(CH3) +(nc -1)V(CH2) and represents the volume occupied by the hydrophobic groups in the miceliar core at a given temperature.
1c= 1.50+1.26 nc Å and represents the length of the hydrophobic group in the core.
am =area per molecule or the cross-sectional area occupied by the hydrophilic group at the interface.
nc =total number of carbons in the alkyl chain.

[7] = Clarity of prototype shampoo compositions with sodium lauryl sulfate (Example 87); assay type: physicochemical; details: room temperature, 6 months
Description: as §1, §2

[8] = Surface tension at the water/air interface (Example 91); assay type: physicochemical; details: 60 °C
Description: An important characteristic feature that surfactants have is the tendency for them to absorb at the water/air interface in an oriented manner, thereby altering the interfacial free energy of that surface. The surface free energy per unit area or surface tension (γ), is a measure of this work and may be considered as the minimum amount of work required to bring sufficient surfactant molecules to the surface.
The surface tension (γ) value of C8 /C10 oxypropyl D-gluconamide was determined and is set forth below: […]

% Zein Solubilized (zein): 6% | Increase (viscosity) ([1]; 1.0% thickener): 13 × | Increase (viscosity) ([1]; 2.0% thickener): 27 × | Increase (viscosity) ([1]; 3.0% thickener): 80 × | Increase (viscosity) ([1]; 4.0% thickener): 148 × | Increase (viscosity) ([1]; 5.0% thickener): 860 × | Foam Height Initial [2]: 212 mm | Foam Height Final ([2]; after 10 minutes): 165 mm | .PI.cmc (surface pressure) [3]: 38.5 dyn/cm | increased the viscosity of that composition ([4]; Example 86 shampoo (2395/22)): 109 times | Viscosity ([4]; Example 86 shampoo, 22° C.): 2395 Centipoise | am (area per molecule) [5]: 43.1 Å^2 | p (packing parameter) [6]: 0.503 | Appearance (Time) ([7]; 3.0% thickener in […] sodium lauryl sulfate shampoo): Clear | Appearance (Time) ([7]; 4.0% thickener in […] sodium lauryl sulfate shampoo): Clear | Appearance (Time) ([7]; 5.0% thickener in […] sodium lauryl sulfate shampoo): Clear | γ (surface tension) [8]: 29.2 dyn/cm
Substance: C8 /C10 oxypropyl D-gluconamide
